{"source": "patent US20230391727A1", "about": "“ANALOGUES OF PENTAMIDINE AND METHODS FOR TREATING INFECTIONS” (Auransa Inc., priority 2020, published 2023)", "key": {"[1]": {"system": "P. aeruginosa (BCCM 27648)", "experiment": "Checkerboard/MIC assay with rifampicin", "type": "cell-based", "conditions": "Pseudomonas aeruginosa BCCM27648", "from_the_text": "(§1) The 17 test strains/isolates were: (1) Serratia marcescens (ATCC 13880); (2) Salmonella typhimurium (ATCC 13311); (3) Salmonella choleraesuis (ATCC 10708); (4) Acinetobacter baumannii (ATCC BAA-1605); (5) A. baumannii (ATCC 17978); (6) A. baumannii (FDA-CDC AR-BANK#0088); (7) Citrobacter freundii (ATCC 8090); (8) Pseudomonas aeruginosa (BCCM 27647); (9) P. aeruginosa (BCCM 27648); (10) Escherichia coli (ATCC 25922); (11) E. coli (ATCC 10536); (12) Stenotrophomonas maltophilia (ATCC 13637); (13) Enterobacter cloacae (ATCC BAA-1143); (14) E. cloacae (ATCC 13047); (15) E. aerogenes (ATCC 13048); (16) Klebsiella pneumoniae (NCTC 13438); and (17) Klebsiella pneumoniae (FDA-CDC AR-BANK#0160). These bacterial strains were obtained from the American Type Culture Collection (ATCC, Rockville, MD, USA); Belgian Coordinated Collections of Microorganisms; The Culture Collections of Public Health England, UK; and FDA-CDC anticimrobial Resistance Isolate Bank, USA, and cryopreserved as single-use frozen working stock cultures which were stored at −80° C.\n(§2) The 17 test strains were grown on nutrient agar or tryptic soy agar (TSA) medium as below. Colonies were suspended in phosphate buffered saline (PBS) pH 7.4. The absorbance of the bacterial suspension was measured with a spectrophotometer at OD620nm, and then the suspension was adjusted to 1-2×10^8 CFU/mL in PBS. The adjusted suspension was further diluted 1:500 in cation-adjusted Mueller-Hinton Broth. Each well contained approximately 5×10^5 CFU/mL. […] The testing inoculum was prepared within minutes before adding to wells of the test plate.\n(§3) Compound 3 was tested in 8 points by two-fold serial titrations from 100 to 0.78 μg/mL. […] Assay plates were incubated and MIC endpoints were read as complete inhibition of visual growth. The checkerboard combination analysis was performed following the MIC testing protocol to identify potential synergistic, indifferent or antagonistic interactions. The analysis also included each test substance alone at the same concentration ranges.\n(§4) FIC (Fraction Inhibitory Concentration) and FIC Index (FICI) values for each test condition and the average of FICI values of all pairwise combinations were calculated to determine if synergy or antagonism existed between the two substances. The FIC index was determined by calculating the sum of the ratios of MICs (minimum inhibitory concentrations) for both substances. […] Synergy is defined as the FICI (Σ)≤0.5; additivity or indifference are defined as the FICI (Σ)>0.5 to ≤4; antagonism is defined as the FICI (Σ)>4. The two fold of highest test article concentration was used for FIC value calculations in the circumstances where MIC values were greater than the highest test article concentration."}, "[2]": {"system": "Serratia marcescens (ATCC 13880)", "experiment": "Checkerboard/MIC assay with rifampicin", "type": "cell-based", "from_the_text": "as §1, §2, §3, §4"}, "[3]": {"system": "Pseudomonas aeruginosa (BCCM 27647)", "experiment": "Checkerboard/MIC assay with rifampicin", "type": "cell-based", "conditions": "Pseudomonas aeruginosa BCCM27647", "from_the_text": "as §1, §2, §3, §4"}, "[4]": {"system": "Citrobacter freundii (ATCC 8090)", "experiment": "Checkerboard/MIC assay with rifampicin", "type": "cell-based", "from_the_text": "as §1, §2, §3, §4"}, "[5]": {"system": "Escherichia coli (ATCC 25922)", "experiment": "Checkerboard/MIC assay with rifampicin", "type": "cell-based", "from_the_text": "as §1, §2, §3, §4"}, "E. coli (ATCC 10536)": {"system": "E. coli (ATCC 10536)", "experiment": "Checkerboard/MIC assay with rifampicin", "type": "cell-based", "conditions": "Escherichia coli ATCC 10536", "from_the_text": "as §1, §2, §3, §4"}, "[6]": {"system": "Klebsiella pneumoniae (NCTC 13438)", "experiment": "Checkerboard/MIC assay with rifampicin", "type": "cell-based", "from_the_text": "as §1, §2, §3, §4"}, "[7]": {"system": "Acinetobacter baumannii (ATCC BAA-1605)", "experiment": "Checkerboard/MIC assay with rifampicin", "type": "cell-based", "conditions": "Acinetobacter baumannii BAA-1605", "from_the_text": "as §1, §2, §3, §4"}, "A. baumannii ATCC 17978": {"system": "A. baumannii ATCC 17978", "experiment": "Checkerboard assay with novobiocin (FIGS. 2, 3, 5, 6)", "type": "cell-based, Acinetobacter baumannii", "from_the_text": "Novobiocin is an anti-staphylococcal drug, but with limited use. The oral form of novobiocin drug has since been withdrawn from the market due to lack of efficacy. This antibiotic is often used to treat Staphylococcus aureus infection, particularly methicillin resistant S. aureus “MRSA”."}, "[8]": {"experiment": "Pharmacokinetic analysis, tissue and plasma exposure", "conditions": "male C57BL6 mice, 10 mg/kg subcutaneous administration; kidney, liver, and lung", "procedure": "To determine whether target concentrations/exposures of these compounds can be achieved at various target organs, exposures of compound 3 were tested in kidney, liver, spleen, lung peritoneal fluid and plasma of male C57BL6 mice (5 mice per group). Compound 3 was dosed at 10 mg/kg subcutaneously with each group having samples taken at time indicated (FIG. 7)."}, "[9]": {"system": "human primary hepatocytes", "experiment": "alamarBlue cell viability, cytotoxicity in hepatocytes", "type": "cell-based", "conditions": "24 hours", "method": "Compound 3 was tested for cytotoxicity in human primary hepatocytes in duplicate at 8 concentrations ranging from 0.03 μM to 100 μM (0.013 μg/ml to 44.95 μg/ml ).\nThis assay was performed using cryopreserved human primary hepatocytes (PHH). The cryopreserved PHH were seeded in collagen I coated 96-well plates in plating medium. The medium was replaced with incubation medium 2-4 hours after seeding. After overnight culture, test compound (compound 3) (0.03, 0.1, 0.3, 1, 3, 10, 30, 100 μM), reference compound (chlorpromazine) and vehicle control (1% DMSO) were added, and incubated with the cells for 24 hours followed by the addition of the alamarBlue cell viability reagent. The plates are analyzed for fluorescent intensity after alamarBlue addition. % of cell viability (% of control) was calculated by comparing the background (wells without cells) corrected fluorescent intensity in the compound treated wells and vehicle control treated wells. IC50 values were determined by non-linear regression analysis of the concentration-response curves using the Hill equation. Testing was done in duplicate."}, "[10]": {"system": "17 clinically relevant bacterial strains", "experiment": "Checkerboard assays with rifampicin, summary over the panel", "type": "cell-based", "conditions": "compound 3 in combination of rifampicin; 17 test strains", "source_text": "The 17 test strains/isolates were: (1) Serratia marcescens (ATCC 13880); (2) Salmonella typhimurium (ATCC 13311); (3) Salmonella choleraesuis (ATCC 10708); (4) Acinetobacter baumannii (ATCC BAA-1605); (5) A. baumannii (ATCC 17978); (6) A. baumannii (FDA-CDC AR-BANK#0088); (7) Citrobacter freundii (ATCC 8090); (8) Pseudomonas aeruginosa (BCCM 27647); (9) P. aeruginosa (BCCM 27648); (10) Escherichia coli (ATCC 25922); (11) E. coli (ATCC 10536); (12) Stenotrophomonas maltophilia (ATCC 13637); (13) Enterobacter cloacae (ATCC BAA-1143); (14) E. cloacae (ATCC 13047); (15) E. aerogenes (ATCC 13048); (16) Klebsiella pneumoniae (NCTC 13438); and (17) Klebsiella pneumoniae (FDA-CDC AR-BANK#0160). […]\nThe 17 test strains were grown on nutrient agar or tryptic soy agar (TSA) medium as below. […] The absorbance of the bacterial suspension was measured with a spectrophotometer at OD620nm, and then the suspension was adjusted to 1-2×10^8 CFU/mL in PBS. […] The actual microbial count in the assay ranged from 2˜8×10^5 CFU/mL as determined from dilution plating. […]\nAssay plates were incubated and MIC endpoints were read as complete inhibition of visual growth. […]\nFIC (Fraction Inhibitory Concentration) and FIC Index (FICI) values for each test condition and the average of FICI values of all pairwise combinations were calculated to determine if synergy or antagonism existed between the two substances. […]"}, "[11]": {"conditions": "compound 3 in combination with rifampicin"}}, "note": "Values joined by “and” are separate entries in the source; they are usually repeats but may differ in a detail not shown here. Identical values can stand only once.", "data": [{"smiles": "N=C(N)c1ccc(CC[C@H]2CCC[C@@H](CCc3ccc(C(=N)N)cc3)C2)cc1", "note": "[Compound 3, 4,4′-(2,2′-((1R,3S)-cyclohexane-1,3-diyl)bis(ethane-2,1-diyl))dibenzimidamide]", "values": [{"measurement": "Combination Result", "setting": "[1]; [11]", "result": "additivity/"}, {"measurement": "FICI (Average)", "setting": "[1]; [11]", "result": 1.03}, {"measurement": "MIC", "setting": "[1]; substance alone", "result": 25, "unit": "µg/mL"}, {"measurement": "MIC", "setting": "[2]; ATCC13880, substance alone", "result": "> 100", "unit": "µg/mL"}, {"measurement": "Combination Result", "setting": "[2]; [11]", "result": "synergy (Synergy is defined as the FICI (Σ)≤0.5)"}, {"measurement": "FICI (Average)", "setting": "[2]; [11]", "result": 0.21}, {"measurement": "Combination Result", "setting": "[3]; [11]", "result": "additivity/"}, {"measurement": "FICI (Average)", "setting": "[3]; [11]", "result": 1.03}, {"measurement": "MIC", "setting": "[3]; substance alone", "result": 25, "unit": "µg/mL"}, {"measurement": "MIC", "setting": "[4]; ATCC8090, substance alone", "result": 100, "unit": "µg/mL"}, {"measurement": "Combination Result", "setting": "[4]; [11]", "result": "synergy (Synergy is defined as the FICI (Σ)≤0.5)"}, {"measurement": "FICI (Average)", "setting": "[4]; [11]", "result": 0.19}, {"measurement": "MIC", "setting": "[5]; ATCC25922, substance alone", "result": 6.25, "unit": "µg/mL"}, {"measurement": "Combination Result", "setting": "[5]; [11]", "result": "additivity/"}, {"measurement": "FICI (Average)", "setting": "[5]; [11]", "result": 0.52}, {"measurement": "MIC", "setting": "E. coli (ATCC 10536); ATCC10536, substance alone", "result": 6.25, "unit": "µg/mL"}, {"measurement": "Combination Result", "setting": "E. coli (ATCC 10536); [11]", "result": "synergy (Synergy is defined as the FICI (Σ)≤0.5)"}, {"measurement": "FICI (Average)", "setting": "E. coli (ATCC 10536); [11]", "result": 0.48}, {"measurement": "MIC", "setting": "[6]; NCTC13438, substance alone", "result": 50, "unit": "µg/mL"}, {"measurement": "Combination Result", "setting": "[6]; [11]", "result": "synergy (Synergy is defined as the FICI (Σ)≤0.5)"}, {"measurement": "FICI (Average)", "setting": "[6]; [11]", "result": 0.22}, {"measurement": "Combination Result", "setting": "[7]; [11]", "result": "synergy (Synergy is defined as the FICI (Σ)≤0.5)"}, {"measurement": "FICI (Average)", "setting": "[7]; [11]", "result": 0.31}, {"measurement": "MIC", "setting": "[7]; substance alone", "result": 25, "unit": "µg/mL"}, {"measurement": "synergistic effect with novobiocin", "setting": "A. baumannii ATCC 17978", "result": "clear synergistic effect"}, {"measurement": "synergy with novobiocin as compared to pentamidine with novobiocin", "setting": "A. baumannii ATCC 17978", "result": "superior synergy"}, {"measurement": "MIC", "setting": "A. baumannii ATCC 17978; Acinetobacter baumannii, ATCC17978, substance alone", "result": 33.2, "unit": "µM"}, {"measurement": "exposure relative to target concentrations for pharmacology", "setting": "[8]", "result": "target concentrations for pharmacology could be achieved"}, {"measurement": "effect on cell viability", "setting": "[9]; 10 μM (4.49 μg/ml) and lower concentrations", "result": "No inhibition on cell viability"}, {"measurement": "effect on cell viability", "setting": "[9]; 30 uM and 100 μM (13.48 μg/ml and 44.95 μg/ml)", "result": "significant effects on cell viability"}, {"measurement": "IC50", "setting": "[9]; Hepatocyte, human primary hepatocytes", "result": "25 µM and 11.2 µg/mL"}, {"measurement": "combination effect with rifampicin", "setting": "[10]", "result": "synergistic effects for most tested strains"}]}]}
